{"source": "patent US9463173B2", "about": "“Compositions and methods for treating obesity and obesity-related conditions” (THE JOHNS HOPKINS UNIVERSITY, priority 2014, dated 2016)", "key": {"[1]": {"system": "HDAC activity of mouse liver nuclear extracts", "assay": "HDAC activity fluorometric assay, crude nuclear extracts", "assay_type": "biochemical", "design": "dose or concentration left out as unconfirmed", "conditions": "mean ± S.D.", "protocol": "(§1) FIG. 5A-5D. […] Deacetylation was measured using a fluorimetric assay. […] AMPKa was immunoprecipitated and immunoblotted for AMPKa and acetylated lysine (D). Immunoblots shown in D are representative of three independent experiments. Data in graphs are reported as the mean […] S.D. of samples from four independent experiments. […] DMSO, dimethylsulfoxide.\n(§2) Analysis of HDAC activity was performed using an HDAC activity fluorometric assay kit (Caymen Chemicals, Ann Arbor, Mich.) and was carried out according to the manufacturer's instructions. Crude nuclear extracts were prepared from primary mouse hepatocytes as described in the manufacturer's instructions."}, "human recombinant HDAC1": {"molecular_target": "human recombinant HDAC1 (Homo sapiens, UniProt Q13547)", "sequence (Q13547 whole entry)": "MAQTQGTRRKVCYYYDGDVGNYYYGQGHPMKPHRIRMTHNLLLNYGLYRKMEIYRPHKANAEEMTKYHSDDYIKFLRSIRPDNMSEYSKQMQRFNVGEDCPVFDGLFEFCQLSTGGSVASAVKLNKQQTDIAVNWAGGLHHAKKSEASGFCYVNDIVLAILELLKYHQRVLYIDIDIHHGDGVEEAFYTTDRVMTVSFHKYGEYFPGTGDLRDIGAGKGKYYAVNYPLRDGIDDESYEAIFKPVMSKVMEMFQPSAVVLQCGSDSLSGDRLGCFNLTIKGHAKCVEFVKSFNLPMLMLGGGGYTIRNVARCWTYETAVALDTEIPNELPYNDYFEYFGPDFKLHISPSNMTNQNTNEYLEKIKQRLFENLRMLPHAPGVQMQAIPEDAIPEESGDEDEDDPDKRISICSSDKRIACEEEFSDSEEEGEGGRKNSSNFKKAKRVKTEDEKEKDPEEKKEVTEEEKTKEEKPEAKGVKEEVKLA", "assay": "HDAC activity fluorometric assay, recombinant HDAC1", "assay_type": "biochemical", "conditions": "800 mM VPA; 1 mM TSA; 20 mM metabolites; mean ± S.D.", "protocol": "as §1, §2"}, "AMPK [2]": {"system": "AMPK", "assay": "AMPK/ACC phosphorylation in primary mouse hepatocytes (immunoblot)", "assay_type": "cell-based", "design": "Phosphorylation (Ser79) of ACC / AMPK protein levels / ACC protein levels / Phosphorylation of ACC stimulated by VPA, in presence of AMPK inhibitor: dose or concentration left out as unconfirmed", "conditions": "for Levels of phosphorylated AMPK/ACC compared with VPA: 20 mM metabolite vs 800 mM VPA, 2 hours; for Levels of phosphorylated AMPK/ACC at higher concentration: 100 mM metabolite (data not shown)", "protocol": "(§3) Proteins (20 mg) were resolved by sodium dodecyl sulfate polyacrylamide gel electrophoresis, electrotransferred to a nitrocellulose membrane, and probed using antibodies against AMPKa, phosphorylated (p-) AMPKa (Thr172), ACC, p-ACC (Ser79), and b-actin (obtained from Cell Signaling Technology, Danvers, Mass.)."}, "ob/ob mice": {"system": "ob/ob mice", "assay": "In vivo mouse study, 14 days via drinking water", "conditions": "for Accumulation of fats in the liver (histology) compared with untreated mice: hematoxylin and eosin staining; for Body mass day 1: day 1 prior to treatment; for Body mass day 7 / Body mass day 14: 0.26% (w/v) VPA or 0.5% (w/v) metformin in drinking water", "protocol": "FIG. 6A-6E. […] A section of each liver was analyzed using hemotoxylin and eosin staining Histology images are representative of four mice per treatment group (A). The mass of each liver was measured and calculated as a ratio to body mass (B). Serum glucose (C) and serum triglyceride (D) concentrations were measured using colorimetric assays. ALT was measured using a colorimetric assay to assess for hepatotoxicity (E). Data in graphs are reported as the mean […] S.D. of four mice per cohort.\nAll treatments of mice as a part of this study were in accordance with protocols that were approved by the Institutional Animal Care and Use Committee of The Johns Hopkins University School of Medicine. […] Body masses were recorded on day 1 prior to treatment, day 7, and day 14. After 14 days of drug treatments, all mice were euthanized by isoflurane inhalation followed by cervical dislocation, and whole blood was collected immediately. The livers were weighed immediately, rinsed in cold phosphate-buffered saline, and fixed in 10% formalin for 48 hours for hematoxylin and eosin staining.\nSerum glucose was analyzed using a Colorimetric Glucose Assay obtained from BioVision, Inc. (Milpitas, Calif.) and was performed according to manufacturer's instructions. Serum triglycerides were analyzed utilizing a Serum Triglyceride Determination Kit obtained from Sigma-Aldrich and was performed according to manufacturer's instructions."}, "AMPKa": {"system": "AMPKa", "assay": "AMPKa acetylation status in hepatocytes (immunoprecipitation, acetylated lysine immunoblot)", "assay_type": "cell-based, mouse", "protocol": "as §1"}, "[3]": {"conditions": "10 mg/kg/day in adults; cited from earlier work"}, "AMPK [4]": {"system": "AMPK", "assay": "AMPK/ACC phosphorylation in primary human hepatocytes (immunoblot)", "assay_type": "cell-based", "design": "dose or concentration left out as unconfirmed", "conditions": "1 to 24 hours; following 1 hour; each of four donors", "protocol": "Primary human hepatocytes were obtained from XenoTech LLC (Lenexa, Kans.). Four preparations were used: […]. The hepatocytes had reported viabilities of 95.4, 74.7, 77.9, and 74.9%, respectively. Upon receipt, the shipping medium was changed to Williams' E medium containing 10% FBS, penicillin, streptomycin, and L-glutamine. Following 24 hours of incubation at 37° C. and 5% CO2, the media was changed to 5% FBS, penicillin, streptomycin, and L-glutamine 4 hours prior to treatments.\nas §3, with “Cells were harvested as previously described (Bumpus, 2011). Proteins” for “Proteins”"}}}
{"smiles": "C=CCC(CCC)C(=O)O", "note": "(racemic) [4-ene-VPA, (+/−)-2-Propyl-4-pentenoic Acid]", "values": [{"measurement": "deacetylation as compared with samples treated with vehicle only", "setting": "[1]", "result": "90.1±3.9", "unit": "%"}, {"measurement": "deacetylation", "setting": "human recombinant HDAC1", "result": "81.5±15.5", "unit": "%"}, {"measurement": "Levels of phosphorylated AMPK/ACC compared with VPA", "setting": "AMPK [2]", "result": "greater than treatment with VPA itself"}, {"measurement": "Levels of phosphorylated AMPK/ACC at higher concentration", "setting": "AMPK [2]", "result": "commensurate with those observed using 20 mM of metabolites"}]}
{"smiles": "CC/C=C(\\CCC)C(=O)O", "note": "[2-ene-VPA, (E,Z) 2-Propyl-2-pentenoic Acid]", "values": [{"measurement": "deacetylation as compared with samples treated with vehicle only", "setting": "[1]", "result": "93.6±3.6", "unit": "%"}, {"measurement": "deacetylation", "setting": "human recombinant HDAC1", "result": "90±9.1", "unit": "%"}, {"measurement": "Levels of phosphorylated AMPK/ACC compared with VPA", "setting": "AMPK [2]", "result": "greater than treatment with VPA itself"}, {"measurement": "Levels of phosphorylated AMPK/ACC at higher concentration", "setting": "AMPK [2]", "result": "commensurate with those observed using 20 mM of metabolites"}]}
{"smiles": "CCCC(C(=O)O)C(O)CC", "note": "(stereo not drawn) [3-OH-VPA, 3-Hydroxy-2-propylpentanoic Acid]", "values": [{"measurement": "deacetylation as compared with samples treated with vehicle only", "setting": "[1]", "result": "98±3.9", "unit": "%"}, {"measurement": "deacetylation", "setting": "human recombinant HDAC1", "result": "86±16.8", "unit": "%"}, {"measurement": "Levels of phosphorylated AMPK/ACC compared with VPA", "setting": "AMPK [2]", "result": "greater than treatment with VPA itself"}, {"measurement": "Levels of phosphorylated AMPK/ACC at higher concentration", "setting": "AMPK [2]", "result": "commensurate with those observed using 20 mM of metabolites"}]}
{"smiles": "CCCC(C(=O)[O-])C(=O)CC.[Na+]", "note": "(stereo not drawn) [3-keto-VPA, 3-oxo-2-propyl-pentanoic Acid Sodium Salt]", "values": [{"measurement": "deacetylation as compared with samples treated with vehicle only", "setting": "[1]", "result": "94±7.3", "unit": "%"}, {"measurement": "deacetylation", "setting": "human recombinant HDAC1", "result": "90.9±15.2", "unit": "%"}]}
{"smiles": "Nn1nnc2ccccc21", "note": "[ABT, 1-aminobenzotriazole]", "values": [{"measurement": "Levels of phosphorylated AMPK, ABT and VPA compared with ABT alone", "setting": "AMPK [2]; 1 mM ABT 1 hour prior to VPA for 2 hours", "result": "not elevated"}]}
{"smiles": "c1cc(-c2cnn3cc(-c4ccc(OCCN5CCCCC5)cc4)cnc23)ccn1", "note": "[Compound C, 6-[4-(2-piperidin-1-ylethoxy)phenyl]-3-pyridin-4-ylpyrazolo[1,5-a]pyrimidine]", "values": [{"measurement": "Phosphorylation of ACC stimulated by VPA, in presence of AMPK inhibitor", "setting": "AMPK [2]; Compound C 30 minutes prior to VPA for 2 hours", "result": "abrogated"}]}
{"smiles": "CC(/C=C/C(=O)NO)=C\\[C@@H](C)C(=O)c1ccc(N(C)C)cc1", "note": "[TSA, trichostatin A]", "values": [{"measurement": "deacetylation as compared with samples treated with vehicle only", "setting": "[1]", "result": "34.6±4.3", "unit": "%"}]}
{"smiles": "CCCC(CCC)C(=O)O", "note": "[VPA, valproic acid]", "values": [{"measurement": "deacetylation as compared with samples treated with vehicle only", "setting": "[1]", "result": "76.4±1.2", "unit": "%"}, {"measurement": "Accumulation of fats in the liver (histology) compared with untreated mice", "setting": "ob/ob mice; 14 days", "result": "marked reduction"}, {"measurement": "Body mass day 1", "setting": "ob/ob mice", "result": "50.2 ± 3", "unit": "g"}, {"measurement": "Body mass day 7", "setting": "ob/ob mice", "result": "51.8 ± 3", "unit": "g"}, {"measurement": "Body mass day 14", "setting": "ob/ob mice", "result": "53.8 ± 2.7", "unit": "g"}, {"measurement": "Abnormalities in the histology of treated livers", "setting": "ob/ob mice; mouse, in vivo", "result": "did not detect any abnormalities"}, {"measurement": "Acetylation of AMPKa compared with vehicle treatment samples", "setting": "AMPKa", "result": "commensurate"}, {"measurement": "Serum concentrations of VPA", "setting": "[3]", "result": "400 to 1000", "unit": "µM"}, {"measurement": "deacetylation", "setting": "human recombinant HDAC1", "result": "73.2±5", "unit": "%"}, {"measurement": "Phosphorylation of AMPK and ACC", "setting": "AMPK [4]", "result": "observed"}, {"measurement": "Concentration at which maximal phosphorylation of AMPK and ACC was observed", "setting": "AMPK [2]; 2-hour treatment, concentrations from 200 mM to 2 mM", "result": 800, "unit": "mM"}, {"measurement": "ACC protein levels", "setting": "AMPK [2]; VPA", "result": "not significantly different"}, {"measurement": "AMPK protein levels", "setting": "AMPK [2]; VPA", "result": "did not change significantly"}, {"measurement": "Phosphorylation (Ser79) of ACC", "setting": "AMPK [2]; VPA, time course 1-24 hours", "result": "observed"}]}
{"smiles": "CN(C)C(=N)N=C(N)N", "note": "[metformin, Metformin]", "values": [{"measurement": "Ratio of liver mass to body mass compared with untreated mice", "setting": "ob/ob mice; 14 days", "result": "significantly decreased"}, {"measurement": "Serum ALT activity", "setting": "ob/ob mice; 14 days", "result": "13.3±4", "unit": "mU/ml"}, {"measurement": "Serum glucose concentrations compared with untreated mice", "setting": "ob/ob mice; 14 days", "result": "significantly decreased"}, {"measurement": "Serum triglyceride concentrations compared with untreated mice", "setting": "ob/ob mice; 14 days", "result": "decreased"}, {"measurement": "Accumulation of fats in the liver (histology) compared with untreated mice", "setting": "ob/ob mice; 14 days", "result": "marked reduction"}, {"measurement": "Body mass day 1", "setting": "ob/ob mice", "result": "45.4 ± 6", "unit": "g"}, {"measurement": "Body mass day 7", "setting": "ob/ob mice", "result": "47.4 ± 5.6", "unit": "g"}, {"measurement": "Body mass day 14", "setting": "ob/ob mice", "result": "50 ± 6.1", "unit": "g"}]}
